This note sets out measurements from patent US20260226102A1, “PEPTIDES FOR INCRETIN SYNTHESIS” (priority 2022, published 2026).

For data set [1] the following is noted: standing 24 hours or more.
Method: Peptide samples were screened for crystal stability in several organic solvents. […] The following organic solvents were used for the study: Acetone, ACN, MeOH, EtOH, IPA, BuOH, EtOAc, MTBE, THF, MEK, toluene, and water.
30 mg samples of each peptide tetramer were dispensed into sample vials using an automated dispenser (one vial of each peptide for testing with each solvent). […] Samples were then allowed to stand for 24 hours or more.
Data set [2] can be described thus: Physical stability of crystalline solid form on isolation/drying (XRPD). The class given is physicochemical. The conditions noted are these: for physical stability of the crystalline form: during isolation or upon air-drying/drying.
A short description of data set [3]: Dynamic vapor sorption (DVS) analysis of hygroscopicity. The class given is physicochemical. The source says:
Crystallization of Y-Aib-E-G helps to reject impurities from the crude material. […] Crystallization of the crude Y-Aib-E-G spiked with 1% dimer (impurity) yielded a crystalline Y-Aib-E-G with almost complete rejection of the dimer. Crystallization also improves physical properties, for example, the hygroscopicity.

Counter-ions that a name gives are not always drawn. Like-named read-outs stand apart in the source and are kept apart here. Square brackets hold non-standard residues; d marks the D form. Peptide text beside a SMILES is read from it. * marks the point of attachment. Boc = CC(C)(C)OC(=O)*; Aib = CC(C)(N)C(=O)O; OcHex = C1CCC(O*)CC1; OBn = c1ccc(CO*)cc1; OtBu = CC(C)(C)O*; tBu = CC(C)(C)*; OAll = C=CCO*

For the compound `C=CCOC(=O)CCC(NC(=O)C(C)(C)NC(=O)C(Cc1ccc(OC(C)(C)C)cc1)NC(=O)OC(C)(C)C)C(=O)NCC(=O)O` (stereo not drawn) [Boc—Y(tBu)-Aib-E(All)-G-COOH, Boc-Y(tBu)-Aib-E(All)-G-COOH] (Boc-Y(tBu)[Aib]E(OAll)G-OH; configuration not given here), the “Crystal Formed” value in data set [1] (solvent ACN) is recorded as “No”; in data set [1] (solvent Acetone), “No”; in data set [1] (solvent BuOH), “No”; in data set [1] (solvent EtOAc) it was “Yes”; in data set [1] (solvent EtOH), “No”; in data set [1] (solvent H2O), “No”. Also, the “Crystal Formed” value is “No” in data set [1] (solvent IPA); “Yes” in data set [1] (solvent MEK); “Yes” in data set [1] (solvent MTBE); “No” in data set [1] (solvent MeOH); “No” in data set [1] (solvent THF); “No” in data set [1] (solvent toluene).
With `CC(C)(C)OC(=O)N[C@@H](Cc1ccc(OC(C)(C)C)cc1)C(=O)NC(C)(C)C(=O)N[C@@H](CCC(=O)OCc1ccccc1)C(=O)NCC(=O)O` [Boc—Y(tBu)-Aib-E(Bzl)-G-COOH, Boc-Y(tBu)-Aib-E(Bzl)-G-COOH] (Boc-Y(tBu)[Aib]E(OBn)G-OH), the “Crystal Formed” value in data set [1] (solvent ACN) is listed as “Yes”; in data set [1] (solvent Acetone), “Yes”; in data set [1] (solvent BuOH) it was “No”; in data set [1] (solvent EtOAc) it was “Yes”; in data set [1] (solvent EtOH), “No”; in data set [1] (solvent H2O) it was “No”. Also, the “Crystal Formed” value in data set [1] (solvent IPA) is “No”; in data set [1] (solvent MEK), “Yes”; in data set [1] (solvent MTBE), “Yes”; in data set [1] (solvent MeOH) it was “No”; in data set [1] (solvent THF), “Yes”; in data set [1] (solvent toluene) it was “Yes”.
With `COC(=O)CCC(NC(=O)C(C)(C)NC(=O)C(Cc1ccc(OC(C)(C)C)cc1)NC(=O)OC(C)(C)C)C(=O)NCC(=O)O` (stereo not drawn) [Boc—Y(tBu)-Aib-E(Me)-G-COOH, Boc-Y(tBu)-Aib-E(Me)-G-COOH] (Boc-Y(tBu)[Aib]E(OMe)G-OH; configuration not given here), the “Crystal Formed” value in data set [1] (solvent ACN), in data set [1] (solvent Acetone), in data set [1] (solvent BuOH), in data set [1] (solvent EtOAc), in data set [1] (solvent EtOH) and in data set [1] (solvent H2O) was “No” throughout. For the same compound, the “Crystal Formed” value in data set [1] (solvent IPA) was “No”; in data set [1] (solvent MEK) it was “No”; in data set [1] (solvent MTBE), “Yes”; in data set [1] (solvent MeOH), “No”; in data set [1] (solvent THF), “No”; in data set [1] (solvent toluene), “No”.
Consider `CC(C)(C)OC(=O)NC(Cc1ccc(OC(C)(C)C)cc1)C(=O)NC(C)(C)C(=O)NC(CCC(=O)OC1CCCCC1)C(=O)NCC(=O)O` (stereo not drawn) [Boc—Y(tBu)-Aib-E(cHx)-G-COOH, Boc-Y(tBu)-Aib-E(cHx)-G-COOH] (Boc-Y(tBu)[Aib]E(OcHex)G-OH; configuration not given here), for which the “Crystal Formed” value in data set [1] (solvent ACN), in data set [1] (solvent Acetone), in data set [1] (solvent BuOH), in data set [1] (solvent EtOAc), in data set [1] (solvent EtOH) and in data set [1] (solvent H2O) was “No” each time. Besides, the “Crystal Formed” value in data set [1] (solvent IPA), in data set [1] (solvent MEK), in data set [1] (solvent MTBE), in data set [1] (solvent MeOH), in data set [1] (solvent THF) and in data set [1] (solvent toluene) was “No” each time.
Regarding `CC(C)(C)OC[C@H](NC(=O)[C@H](COC(C)(C)C)NC(=O)[C@@H]1CCCN1C(=O)CN)C(=O)NCC(N)=O` [G-P-S-S-G-NH2 Form A, Gly-Pro-Ser(tBu)-Ser(tBu)-Gly-NH2] (H-GPS(tBu)S(tBu)G-NH2), in data set [2], the “physical stability of the crystalline form” value was “physically is not stable and converts to Form B easily”.
As for `CC(C)(C)OC[C@H](NC(=O)[C@H](COC(C)(C)C)NC(=O)[C@@H]1CCCN1C(=O)CN)C(=O)NCC(N)=O` [G-P-S-S-G-NH2 Form B, Gly-Pro-Ser(tBu)-Ser(tBu)-Gly-NH2] (H-GPS(tBu)S(tBu)G-NH2), the “physical stability of the crystalline form after vacuum drying” value in data set [2] (vacuum drying at 32-33° C. for 1 day) was “remained as Form B”.
For the compound `CC(C)(C)OC(=O)NC(Cc1cn(-c2ccc([N+](=O)[O-])cc2[N+](=O)[O-])cn1)C(=O)NC(C)(C)C(=O)NC(CCC(=O)NC(c1ccccc1)(c1ccccc1)c1ccccc1)C(=O)NCC(=O)O` (stereo not drawn) [H(DNP)-Aib-Q-G Form A, (Boc)-His(dnp)-Aib-Gln(trt)-Gly], the “physical stability of the crystalline form” value in data set [2] was “converts to H(DNP)-Aib-Q-G Form C easily”.
With `C[C@H](N)C(=O)N1CCC[C@H]1C(=O)N1CCC[C@H]1C(=O)N1CCC[C@H]1C(=O)N[C@@H](COC(C)(C)C)C(N)=O` [H-A-P-P-P-S-NH2 HCl Form A, H-Ala-Pro-Pro-Pro-Ser(tBu)-NH2] (H-APPPS(tBu)-NH2), the “physical stability of the crystalline form” value in data set [2] is on record as “loses crystallinity upon isolation/drying”.
Take `CC(C)(C)OC(=O)CC[C@H](NC(=O)C(C)(C)NC(=O)[C@H](Cc1ccc(OC(C)(C)C)cc1)NC(=O)OC(C)(C)C)C(=O)NCC(=O)O` [Y-Aib-E-G Form B, Boc-l-Tyr (tBu)-Aib-Glu(OtBu)-Gly-OH] (Boc-Y(tBu)[Aib]E(OtBu)G-OH): the “wt % gain in sorption from 0% to 95% RH” value in data set [3] was found to be 1.4 wt %.
The same measure, in the same setting: the figure for `CC(C)(C)OC(=O)CC[C@H](NC(=O)C(C)(C)NC(=O)[C@H](Cc1ccc(OC(C)(C)C)cc1)NC(=O)OC(C)(C)C)C(=O)NCC(=O)O` [amorphous Y-Aib-E-G, Boc-l-Tyr (tBu)-Aib-Glu(OtBu)-Gly-OH] (Boc-Y(tBu)[Aib]E(OtBu)G-OH) is 4.1 wt %.
